From EP2818472A1, “Imidazo[4,5-c]pyridine and pyrrolo[3,2-c]pyridine compounds as G-protein-coupled receptor kinase 5 (GRK5) modulators” (Max-Planck-Gesellschaft zur Förderung der Wissenschaften …, priority 2013, dated 2014)

These compounds were tested on beta-TC6 cells (assay: Insulin HTRF assay (relative activity Ar) in beta-TC6 cells). Details: Mus musculus, Beta-TC6, 4 h, insulin HTRF, supernatant of beta-TC6 cells, incubation with test compound at 37°C for 2, 3, 4h; read-out: Ar (relative activity).
Format: cell-based, mouse
From the text: For further screening of compounds derived from compounds described above for their ability to regulate insulin release an insulin HTRF® (Homogeneous Time-Resolved Fluorescence; Cisbio International, France) was used. This assay is based on two antibodies against insulin binding to different epitopes of insulin. One of these antibodies is coupled to Europium (Ab-Eu-Cryptate) and the other one to the fluorophore XL665 (Ab-XL665). If the insulin is secreted into the supernatant of cell culture, both antibodies can bind to insulin and come therefore into close proximity, which allows upon excitation that energy transfer between (FRET) the long-life fluorescent donor Europium (cryptate) and the acceptors XL665. FRET increases proportionally with insulin concentration.
The automated assay protocol is as follows: • On day 1, 15k beta-TC6 cells per well were seeded for 24 or 48 h in 50 µL complete medium. On day 2 or respective on day 3, the medium is removed and cells are washed with 60 µL 1xPBS and 20 µL induction buffer is added using BioTek washer. Subsequently, 10 µL Sunitininb (5 -µM f.c.) or the test compound in induction buffer; 0.5% f.c. DMSO (CyBi-well) is transferred to the cells. The cells are then incubated at 37°C for 2, 3, 4h.
First 10 µL supernatant is transferred from the cell plates in HTRF plates (CyBi-well). 10 µL of 0, 1, 2, and 4 ng/ml insulin standard controls in assay medium is used as a control. To each well 10 µL of combined 1:25 Ab-XL665 (Acc) and 1:20 Ab-Eu-Cryptate (WellMate) are added and incubated for 120 min at RT in the dark. Finally HTRF is measured on ViewLux ultra high throughput microplate imager (PerkinElmer).
The evaluation software DataFactoty derives relative activities Ar according to the following equation: Ar = (V-R(0%control))/(R(100%control) -R0%control)) × 100 [formula]
The activity of the compounds was classified according to their Ar (relative activity) into the following ranges: […]
With `CC(=O)Nc1cccc(Nc2cc3c(cn2)cc(-c2ccc(C(=O)N(C)C)cc2)n3C)c1` [Compound 56, 4-[6-(3-acetamidoanilino)-1-methyl-pyrrolo[3,2-c]pyridin-2-yl]-N,N-dimethyl-benzamide] the Emax was 50 to 100%.
For `c1ccc(CNc2nccc3[nH]c(-c4ccncc4)nc23)cc1` [Compound 428, N-benzyl-2-(4-pyridyl)-1H-imidazo[4,5-c]pyridin-4-amine], the Emax was 30 to 50%.
`COC(=O)c1ccc(Nc2cc3[nH]c(-c4ccccn4)cc3cn2)cc1` [Compound 67, methyl 4-[[2-(2-pyridyl)-1H-pyrrolo[3,2-c]pyridin-6-yl]amino]benzoate] gave an Emax of 30 to 50%.
For `COc1cc(Nc2nc3cnc(-c4cccc(F)c4)cc3n2C)cc(OC)c1OC` [Compound 814, 6-(3-fluorophenyl)-1-methyl-N-(3,4,5-trimethoxyphenyl)imidazo[4,5-c]pyridin-2-amine], the Emax was 0 to 30%.
`CN(C)c1ccc(-c2cc3c(cn2)nc(NCc2ccccc2)n3C)cc1` [Compound 615, N-benzyl-6-(4-dimethylaminophenyl)-1-methyl-imidazo[4,5-c]pyridin-2-amine] was tested, and the Emax was greater than 100%.
In the case of `CC(C)Oc1cccc(Nc2cc3[nH]c(-c4ccccn4)cc3cn2)c1` [Compound 73, N-(3-isopropoxyphenyl)-2-(2-pyridyl)-1H-pyrrolo[3,2-c]pyridin-6-amine], the Emax is reported as 50 to 100%.
`Fc1cccc(Nc2cc3[nH]c(-c4ccccn4)cc3cn2)c1` [Compound 71, N-(3-fluorophenyl)-2-(2-pyridyl)-1H-pyrrolo[3,2-c]pyridin-6-amine] gave an Emax of 50 to 100%.
With `COc1ncccc1-c1cc2c(cn1)nc(NCc1cccc(C)c1)n2C` [Compound 586, 6-(2-methoxy-3-pyridyl)-1-methyl-N-(m-tolylmethyl)imidazo[4,5-c]pyridin-2-amine] the Emax was 30 to 50%.
Compound `COc1cc(Nc2nccc3[nH]c(-c4ccc5c(c4)OCCO5)nc23)cc(OC)c1OC` [Compound 409, 2-(2,3-dihydro-1,4-benzodioxin-6-yl)-N-(3,4,5-trimethoxyphenyl)-1H-imidazo[4,5-c]pyridin-4-amine] has an Emax of 50 to 100%.
In the case of `COc1cccc(Nc2nccc3[nH]c(-c4ccncc4)nc23)c1` [Compound 422, N-(3-methoxyphenyl)-2-(4-pyridyl)-1H-imidazo[4,5-c]pyridin-4-amine], the Emax is reported as 30 to 50%.
Compound `c1ccc(-c2cc3c(Nc4cccnc4)nccc3[nH]2)cc1` [Compound 319, 2-phenyl-N-(3-pyridyl)-1H-pyrrolo[3,2-c]pyridin-4-amine] has an Emax of 50 to 100%.
`COc1cc(OC)cc(-c2cc3c(Nc4ccncc4)nccc3[nH]2)c1` [Compound 291, 2-(3,5-dimethoxyphenyl)-N-(4-pyridyl)-1H-pyrrolo[3,2-c]pyridin-4-amine] was tested, and the Emax was 50 to 100%.
`CC(=O)Nc1cccc(Nc2cc3c(cn2)cc(-c2cnn(C)c2)n3Cc2ccccc2)c1` [Compound 157, N-[3-[[1-benzyl-2-(1-methylpyrazol-4-yl)pyrrolo[3,2-c]pyridin-6-yl]amino]phenyl]acetamide] showed an Emax of 50 to 100%.
For `Cn1cc(-c2cc3cnc(Nc4cccc(F)c4)cc3n2C)cn1` [Compound 151, N-(3-fluorophenyl)-1-methyl-2-(1-methylpyrazol-4-yl)pyrrolo[3,2-c]pyridin-6-amine], the Emax was 50 to 100%.
Work on `COc1cc(Nc2nc3cnc(-c4cccnc4)cc3n2C)cc(OC)c1OC` [Compound 589, 1-methyl-6-(3-pyridyl)-N-(3,4,5-trimethoxyphenyl)imidazo[4,5-c]pyridin-2-amine] yielded an Emax of 50 to 100%.
`CN(C)C(=O)c1ccc(Nc2cc3c(cn2)nc(-c2cccc(F)c2)n3C)cc1` [Compound 715, 4-[[2-(3-fluorophenyl)-1-methyl-imidazo[4,5-c]pyridin-6-yl]amino]-N,N-dimethyl-benzamide] was tested, and the Emax was 30 to 50%.
Compound `Cc1cccc(Nc2cc3[nH]c(-c4cncn4C)cc3cn2)c1` [Compound 105, 2-(3-methylimidazol-4-yl)-N-(m-tolyl)-1H-pyrrolo[3,2-c]pyridin-6-amine] has an Emax of 50 to 100%.
For `CC(=O)Nc1ccc(Nc2nccc3[nH]c(-c4cccnc4)cc23)cc1` [Compound 231, N-[4-[[2-(3-pyridyl)-1H-pyrrolo[3,2-c]pyridin-4-yl]amino]phenyl]acetamide], the Emax was greater than 100%.
`Cn1c(NCC2CCCO2)nc2cnc(Nc3cccc(Cl)c3)cc21` (stereo not shown) [Compound 642, N6-(3-chlorophenyl)-1-methyl-N2-(tetrahydrofuran-2-ylmethyl)imidazo[4,5-c]pyridine-2,6-diamine] gave an Emax of 50 to 100%.
In the case of `Cn1c(-c2ccccc2)nc2cnc(-c3ccc(N)nc3)cc21` [Compound 735, 5-(1-methyl-2-phenyl-imidazo[4,5-c]pyridin-6-yl)pyridin-2-amine], the Emax is reported as 30 to 50%.
Work on `CNc1nc2cnc(Nc3ccc(C(=O)N(C)C)cc3)cc2n1Cc1ccccc1` [Compound 537, 4-[[1-benzyl-2-(methylamino)imidazo[4,5-c]pyridin-6-yl]amino]-N,N-dimethyl-benzamide] yielded an Emax of 50 to 100%.
Work on `CN(C)C(=O)c1ccc(-c2cc3c(Nc4cccc(OC(F)(F)F)c4)nccc3n2C)cc1` [Compound 222, N,N-dimethyl-4-[1-methyl-4-[3-(trifluoromethoxy)anilino]pyrrolo[3,2-c]pyridin-2-yl]benzamide] yielded an Emax of 0 to 30%.
In the case of `CN(C)C(=O)c1ccc(Nc2cc3[nH]c(-c4ccccn4)cc3cn2)cc1` [Compound 70, N,N-dimethyl-4-[[2-(2-pyridyl)-1H-pyrrolo[3,2-c]pyridin-6-yl]amino]benzamide], the Emax is reported as greater than 100%.
With `CNc1nc2cnc(Nc3ccc(N4CCOCC4)cc3)cc2n1Cc1ccco1` [Compound 521, 1-(2-furylmethyl)-N2-methyl-N6-(4-morpholinophenyl)imidazo[4,5-c]pyridine-2,6-diamine] the Emax was greater than 100%.
`COc1ccc(-c2nc3c(N4CCN(C)CC4)nccc3[nH]2)cc1OC` [Compound 346, 2-(3,4-dimethoxyphenyl)-4-(4-methylpiperazin-1-yl)-1H-imidazo[4,5-c]pyridine] showed an Emax of 50 to 100%.
`COc1ccc(Nc2cc3[nH]c(-c4cn[nH]c4)cc3cn2)cc1OC` [Compound 111, N-(3,4-dimethoxyphenyl)-2-(1H-pyrazol-4-yl)-1H-pyrrolo[3,2-c]pyridin-6-amine] was tested, and the Emax was greater than 100%.
For `CC(=O)N(C)c1cccc(-c2cc3cnc(Nc4ccc(N5CCN(C)CC5)cc4)cc3n2C)c1` [Compound 164, N-methyl-N-[3-[1-methyl-6-[4-(4-methylpiperazin-1-yl)anilino]pyrrolo[3,2-c]pyridin-2-yl]phenyl]acetamide], the Emax was 50 to 100%.
Compound `CN(C)c1cccc(Nc2cc3c(cn2)cc(-c2cnn(C)c2)n3C)c1` [Compound 134, N1,N1-dimethyl-N3-[1-methyl-2-(1-methylpyrazol-4-yl)pyrrolo[3,2-c]pyridin-6-yl]benzene-1,3-diamine] has an Emax of 50 to 100%.
`CS(=O)(=O)c1cccc(Nc2nccc3[nH]c(-c4ccsc4)cc23)c1` [Compound 262, N-(3-methylsulfonylphenyl)-2-(3-thienyl)-1H-pyrrolo[3,2-c]pyridin-4-amine] was tested, and the Emax was 50 to 100%.
For `CNc1nc2cnc(Nc3ccc(C(N)=O)cc3)cc2n1-c1ccccc1` [Compound 504, 4-[[2-(methylamino)-1-phenyl-imidazo[4,5-c]pyridin-6-yl]amino]benzamide], the Emax was 50 to 100%.
`Fc1cccc(-c2cc3c(N4CCOCC4)nccc3[nH]2)c1` [Compound 187, 4-[2-(3-fluorophenyl)-1H-pyrrolo[3,2-c]pyridin-4-yl]morpholine] gave an Emax of 30 to 50%.
